# Data: patent publication US20190015423A1, “REGULATION OF GENE EXPRESSION BY MODULATING PRIMARY CILIA LENGTH” (THE TRUSTEES OF COLUMBIA UNIVERSITY IN THE CITY OF NEW YORK, priority 2016, published 2019)
# “Also recorded” adds a separate entry of the source. Structures can show the parent of a compound that is named as a salt. Where a SMILES comes first, the peptide text is derived from it.
# Test system: MLO-Y4 osteocytes
# Assay: High-throughput drug screening of primary cilia length and incidence
# Assay type: cell-based
# Details: 10 μM, 16 hours; for Average Incidence SD Away / Average Length SD Away: triplicate, normalized to vehicle control, standard deviation away from the population average
# Method: MLO-Y4 osteocytes were maintained on collagen I-coated dishes in MEMα (Life_Technologies) supplemented with 5% fetal bovine serum (FBS), 5% calf serum (CS), and 1% penicillin/streptomycin (P/S) at 37° C. and 5% CO2. Osteocytes were then seeded onto 384-well collagen-coated plates for 72 hours before fixation. […] These libraries include Tocris, Sigma LOPAC, Selleck Chemical, Prestwick, and Spectrum commercially available compound libraries. All cell seeding and plate handling was performed with the Perkin Elmer cell:explorer workstation.
# Cells were fixed in 4% paraformaldehyde and permeabilized with 0.1% Triton-X 100 (Sigma). 10% goat serum (vendor) was used for blocking. Cilia were stained using a monoclonal antibody against acetylated α-tubulin (1:20) from a C3B9 hybridoma cell line, and visualized with A F488 (1:1000, ThermoFisher). Nuclei were visualized with Hoechst. Cells were imaged using a GE INCell 2000 high-throughput imager at 40× magnification. 4 fields of view were taken per well.
# Each pair of nuclei and cilia images was first analyzed individually, then the entire population was examined to evaluate each compound's effect on cilia length and incidence. A custom MATLAB script was developed to perform all image analysis. This script first utilizes an enhanced implementation of a watershed transform, which is a segmentation tool which enables detection of similarly shaped overlapping particles in noisy images by the procedural whittling down of pixels found close to the edge of such particles. The augmentation of the algorithm incorporates thresholding for noise removal based on signal intensity and object size, nuclei dilation to exclude non-cellular artifacts, as well as skeletonization of cilia to quantify length. The results of the analysis are number of nuclei, number of cilia, and average cilia length in each image.
# Compounds were selected based on deviation from the population mean. Each well was normalized to vehicle control images on each plate, allowing the establishment of a normalized population mean. Hits were chosen based on compounds whose triplicate mean was furthest (based on standard deviation away) from the population mean. […] Compounds were classified based on mechanism of action.
# To identify compounds that modulate primary cilia formation a high-throughput platform was developed to automate cell culture, staining, imaging, and analysis, as shown in schematic form in FIG. 18. […] Cells were cultured on 384-well plates, and treated with small molecules with known biologic activity, enabling classification of mechanisms of action. Drug treatment was applied for 16 hours at 10 μM concentration, performed in triplicate, before fixation and immunostaining of primary cilia. Cells were then imaged using the GE INCell 2000 High Content Analyzer, capturing 4 fields of view per well at 40× magnification. Additionally, each plate contains 8 wells of DMSO vehicle control.
# A MATLAB script was developed to detect and analyze changes in ciliogenesis. […] A representative exemplary image (FIG. 19A) is cropped to better display features, scale bar represents 30 μm. A custom MATLAB script was used to identify nuclei and cilia for analysis (FIG. 19B). […] Objects are further filtered based on size and signal intensity.
# Cilia length and incidence for each field of view were normalized to vehicle control on that individual plate. This allowed development of a normalized population average and standard deviation. […] To control for toxic effects only small molecules with at least 40% viability, based on number of nuclei versus control, were selected as hits. Furthermore, compounds repeated between multiple libraries eliciting the same effect on cilia length or incidence were excluded, such that only one of the repeated compounds was selected as a hit.
Molecule,Average Incidence SD Away [SD],Average Length SD Away [SD],"classification as hit increasing cilia length in the screen (hit = 1.5 standard deviation above population average, at least 40% viability)"
COC(=O)[C@H](Cc1ccccc1)NC(=O)[C@@H](N)CC(=O)O [Aspartame] (H-Asp-Phe-OMe),1.732,–,–
CC[n+]1c(-c2ccccc2)c2cc(N)ccc2c2ccc(N)cc21 [HOMIDIUM BROMIDE],–,1.694,–
O.c1cnc2c(c1)ccc1cccnc12 [110-Phenanthroline monohydrate],–,1.838,–
CC(=O)O[C@@]12CO[C@@H]1C[C@H](O)[C@@]1(C)C(=O)[C@H](O)C3=C(C)[C@@H](OC(=O)[C@H](O)[C@@H](NC(=O)OC(C)(C)C)c4ccccc4)C[C@@](O)([C@@H](OC(=O)c4ccccc4)[C@H]21)C3(C)C [Docetaxel],–,3.416,–
C=CCN1C[C@H](C)N([C@H](c2ccc(C(=O)N(CC)CC)cc2)c2cccc(O)c2)C[C@H]1C [BW 373U86],–,1.553,–
Cc1cccc(Cc2c[nH]cn2)c1C [Detomidine HCl],1.922,–,–
COCCc1ccc(OCC(O)CNC(C)C)cc1 (stereo not shown) [Metoprolol tartrate],1.601,–,–
C=C(C)[C@H]1CC=C(C(=O)O)CC1 [PERILLIC ACID (−)],–,2.196,–
"CN(C)CCc1c[nH]c2ccc(C[C@H]3COC(=O)N3)cc12 [Zolmitriptan (Zomig), Zolmitriptan]",1.521,–,–
O=c1[nH]c(=O)n([C@H]2C[C@H](O)[C@@H](CO)O2)cc1F [Floxuridine],1.58,1.672,–
C[S+]([O-])c1ccc(-c2nc(-c3ccc(F)cc3)c(-c3ccncc3)[nH]2)cc1 (stereo not shown) [SB 203580],–,1.797,–
O=c1c(-c2ccc(O)cc2)coc2cc(O)cc(O)c12 [Genistein],1.524,–,–
"CC(C)c1nc(N(C)S(C)(=O)=O)nc(-c2ccc(F)cc2)c1/C=C/[C@@H](O)C[C@@H](O)CC(=O)O [Rosuvastatin calcium (Crestor), Rosuvastatin calcium]",1.644,–,–
Cc1cc(Cl)ccc1OCCCC(=O)NO [Droxinostat],2.26,2.91,–
"O=C1c2ccccc2C(=O)C1c1ccccc1 [Phenindione (Rectadione), Phenindione]",1.688,–,–
"Cc1nccn1CC1CCc2c(c3ccccc3n2C)C1=O (stereo not shown) [Ondansetron (Zofran), Ondansetron]",1.506,–,–
O=C1Cc2c([nH]c3ccc(Br)cc23)-c2ccccc2N1 [Kenpaullone],–,3.28,–
CCCCC/N=c1\ccn(Cc2ccccc2)c2ccccc12 [CP 339818 hydrochloride],–,1.715,–
CCC(C)n1ncn(-c2ccc(N3CCN(c4ccc(OCC5COC(Cn6cncn6)(c6ccc(Cl)cc6Cl)O5)cc4)CC3)cc2)c1=O (stereo not shown) [ITRACONAZOLE],–,2.154,–
Cc1nn(-c2ccccc2)c(C)c1/C=N/N1CCN(Cc2ccccc2)CC1 [SANT-1],–,1.811,–
COc1ccc2c(c1OC)OC[C@@H](c1ccc(OC)c(OC)c1OC)C2 [DUARTIN DIMETHYL ETHER],–,2.07,–
CCc1c2c(nc3ccc(OC(=O)N4CCC(N5CCCCC5)CC4)cc13)-c1cc3c(c(=O)n1C2)COC(=O)[C@]3(O)CC.Cl [CPT 11],1.633,1.894,–
CN(Cc1cc(Br)cc(Br)c1N)C1CCCCC1 [Bromhexine HCl],1.882,1.547,–
Fc1ccc(-c2nc3n(c2-c2ccncc2)CCS3)cc1 [SKF 86002 dihydrochloride],–,1.549,–
c1ccc(-c2ccc(C(c3ccccc3)n3ccnc3)cc2)cc1 (stereo not shown) [Bifonazole],1.664,–,–
"CCCCN1CCCCC1C(=O)Nc1c(C)cccc1C (stereo not shown) [Bupivacaine hydrochloride (Marcain), Bupivacaine hydrochloride]",1.827,–,–

Molecule,Average Incidence SD Away [SD],Average Length SD Away [SD],"classification as hit increasing cilia length in the screen (hit = 1.5 standard deviation above population average, at least 40% viability)"
CC(=O)O[C@]1(C(C)=O)CC[C@H]2[C@@H]3C[C@H](C)C4=CC(=O)CC[C@]4(C)[C@H]3CC[C@@]21C [Medroxyprogesterone acetate],2.659,–,–
"CN/C(=N/CCSCc1nc[nH]c1C)NC#N [Cimetidine (Tagamet), Cimetidine]",1.562,–,–
"COc1cc(C(C)=O)ccc1OCCCN1CCC(c2noc3cc(F)ccc23)CC1 [Iloperidone (Fanapt), Iloperidone]",1.775,–,–
Nc1nc(Cl)nc2c1ncn2[C@H]1C[C@H](O)[C@@H](CO)O1 [Cladribine],1.604,–,–
"NC[C@H]1CC[C@H](C(=O)O)CC1 [Tranexamic acid (Transamin), Tranexamic acid]",1.582,–,–
Nc1nc2nc[nH]c2c(=S)[nH]1 [THIOGUANINE],–,1.675,–
CN1Cc2ccccc2[C@@H]2c3cccc4[nH]cc(c34)C[C@H]21 [CY 208-243],–,2.567,–
CCCCOc1ccc(CC(=O)NO)cc1 [Bufexamac],2.326,3.676,listed as a hit increasing length; also recorded: listed as hits
"O=c1[nH]c(=O)n([C@H]2C[C@H](O)[C@@H](CO)O2)cc1C(F)(F)F [Trifluridine (Viroptic), Trifluridine]",2.117,1.773,–
Ro 19-4605,–,1.584,–
"CCN(C)C(=O)Oc1cccc([C@H](C)N(C)C)c1 [Rivastigmine tartrate (Exelon), Rivastigmine tartrate]",1.664,–,–
"CN(C)CCOC(c1ccccc1)c1ccccc1 [Diphenhydramine HCl (Benadryl), Diphenhydramine HCl]",1.928,–,–
Nc1nc(N)nc(-c2cc(Cl)ccc2Cl)n1 [Irsogladine],1.543,–,–
CC[C@@]1(O)C(=O)OCc2c1cc1n(c2=O)Cc2cc3c(CN(C)C)c(O)ccc3nc2-1 [Topotecan hydrochloride hydrate],2.75,3.899,–
CN(CCOc1ccc(C[C@H](Nc2ccccc2C(=O)c2ccccc2)C(=O)O)cc1)c1ccccn1 [GW 1929],–,1.65,–
O=C1C=C2C=C[C@@H]3C[C@@]2(O1)[C@H]1CCCCN31 [SECURININE],–,1.502,–
"CCc1ccc(CCOc2ccc(CC3SC(=O)NC3=O)cc2)nc1 (stereo not shown) [Pioglitazone hydrochloride (Actos), Pioglitazone hydrochloride]",2.52,–,–
CCOC(=O)C1=C(C)NC(C)=C(C(=O)OC)C1c1cccc([N+](=O)[O-])c1 (stereo not shown) [Nitrendipine],1.542,–,–
O=C1Nc2ccccc2/C1=C1/Nc2ccccc2/C1=N\O [Indirubin-3′-oxime],–,2.475,–
"NC(=O)NO [Hydroxyurea (Cytodrox), Hydroxyurea]",1.988,–,–
C[C@]12CC[C@@H]3c4ccc(O)cc4CC[C@H]3[C@@H]1CC[C@@H]2OC(=O)CCC1CCCC1 [ESTRADIOL CYPIONATE],–,1.56,–
CCOC(=O)N1CCC(=C2c3ccc(Cl)cc3CCc3cccnc32)CC1 [Loratidine],–,2.261,–
COc1nccc(-c2c(-c3ccc(F)cc3)ncn2C2CCC(O)CC2)n1 (stereo not shown) [SB 239063],1.795,4,–
"CCCC(=O)OCOC(=O)C1=C(C)NC(C)=C(C(=O)OC)C1c1cccc(Cl)c1Cl (stereo not shown) [Cleviprex (Clevidipine), Clevidipine]",1.837,–,–
COC(=O)[C@H]1[C@H]2C[C@@H]3c4[nH]c5cc(OC)ccc5c4CCN3C[C@H]2C[C@@H](OC(=O)c2cc(OC)c(OC)c(OC)c2)[C@@H]1OC [RESERPINE],–,1.972,–
Cc1cc(/C=C/c2ccc3cc(N(C)C)ccc3[n+]2C)c(C)n1-c1ccccc1 [PYRVINIUM PAMOATE],–,2.834,–
